Where no end group is shown, it is not given here.
Experiments:
cerebellar cells = test: Cerebellar microexplant proliferation assay (BrdU); assay type: cell-based, Wistar rat
Experimental: Laminated cerebellar cortices of the two hemispheres were explanted from a P3, P4, P7 or P8 Wistar rat, cut into small pieces in GBSS with 0.65% D(+)glucose solution, and triturated by a 0.4 mm gauge needle and subsequently pressed through a 125 μm pore size sieve. The obtained microexplants were centrifuged (60×g) 2 times for a medium exchange into serum-free BSA-supplemented START V-medium (Biochrom). Finally, the microexplants were reconstituted in 500 μl STARTV-medium. For culturing, 38 μl of the cell suspension was incubated for 1 hour on a poly-D-lysine-coated cover slip in a 35 mm Petri dish under an atmosphere comprising 5% CO2 in air and 100% humidity at 34° C. Subsequently, the injuring toxins (as described below), NRPs and 1 ml of STARTV-medium were added, and the cultures were evaluated after 2-3 days of culture.
Toxicological and drug administration experiments were designed such that 1/100 parts of toxin and neuroprotective drug were administered simultaneously to the freshly prepared cerebellar microexplants. Glutamate was prepared as a 50 mM stock solution in MilliQ water while 50 mM 3-nitropropionic acid was pH-adjusted (pH 6.8-7.2) in MilliQ water. The concentrations of the oxidative stress inducing toxin, 3-nitropropionic acid (3-NP), and the excitotoxin, glutamate, in the assay were 0.5 mM each. Lyophilized peptides were reconstituted in PBS or 100 μg/ml human transferrin as a 10 μM stock solution. Subsequently, serial dilutions were made. Cerebellar microexplants were cultivated for 48-72 hours at 34° C., 5% CO2 in air and 100% humidity before they were fixed by increasing amounts of paraformaldehyde (0.4%, 1.2%, 3% and 4%—each treatment 2-3 min).
Using the toxins described above, cerebellar explants were exposed for 24 hours, at the beginning of culturing to dilutions of NRP (survival assay) or NRP and 0.1 μM BrdU (proliferation assay). Subsequently, 80% of the medium was changed without addition of new toxins and NRPs. […]
For statistical analysis of proliferation BrdU-positive nuclei were counted. Statistical significance was measured by Student's t-test.

JAr cells = test: TNF-alpha-induced cytotoxicity in immortalized trophoblast cell line; assay type: cell-based, human
Experimental: Choriocarcinoma cells (Jeg-3, BeWo and Jar; ATCC) were cultured under similar conditions in DMEM/F-12 cell culture medium in 75 cm2 flasks with filter tops (Raylab). Cells were allowed to adhere and grow in an incubator equilibrated in 95%/5% air/CO2 to approximately 70% confluence, before being split every 2 to 3 days by addition of 2 ml of 1× concentrated trypsin-EDTA. After a centrifugation step for 5 min at 1100 rpm, cells were resuspended in 15 ml of fresh DMEM/F-12 in sterile tissue flasks and placed back in the incubator.
In this study, we plated 50,000 JAr cells per well. JAr cells are an immortalized line of cells derived from a human choriocarcinoma cells. Wells were pre-incubated with NRP-5RG D6A (SEQ ID NO: 1) at the concentrations indicated in FIG. 12, or epidermal growth factor (EGF; 5 ng/ml) for 2 hours. Subsequently, cells were exposed to the cultures for 48 hours to TNF-alpha (5 ng/ml) and interferon-gamma (5 ng/ml) to induce stress.

[1] = system: primary human trophoblasts; test: Trophoblast proliferation assay (BrdU incorporation); assay type: cell-based
Experimental: Cell proliferation was determined by BrdU incorporation to examine the effects of NRP-5RG D6A on the proliferation of trophoblasts. EGF (0.8×10^−9 M) was used as a positive control, since studies have previously shown it plays a role in enhancing trophoblast proliferation (Maruo et al., 1992).
Initially cells were treated with NRP-5RG D6A (SEQ ID NO: 1), EGF and BrdU (0.05 μM) for 72 hrs. After the first 24 hrs, an 80% media change was carried out since BrdU is toxic over long incubation periods. Following 72 hrs of incubation, the reaction was stopped by fixation in 4% PFA. However, with this experimental design, most trophoblasts would form syncytia by the end of the 72 hrs, hindering accurate examination of the proliferative effect of NRP-5RG D6A on trophoblasts. […] This allowed analysis of proliferation of mononuclear trophoblasts.
Cell proliferation was evaluated over 24 hrs after seeding 1.3×10^5 cells/cm^2 in culture media (1% serum) treated with 0.05 μM BrdU, NRP-5RG D6A and EGF (FIG. 13).

## REGRRAAPGRAGG-NH2 (listed as Homo sapiens) [SEQ ID NO: 1, 13-mer NRP analogue]
Cerebellar cells; 1 pM, BrdU
  proliferation rate compared to the uninjured vehicle: increased the proliferation rate in these cultures significantly
Cerebellar cells; p<0.01, SEQ ID NO: 1 at 1 pM, SEQ ID NO: 2 at 100 pM
  proliferation compared against injured cells without NRP: highly proliferation-inducing
JAr cells; 1 nM
  rescue effect at further increased concentration: reduced rescue effect
JAr cells; 2 hours pre-incubation, TNF-alpha 5 ng/ml and interferon-gamma 5 ng/ml, 48 hours
  concentration at which a significant rescue effect was observed: 10 fM
[1]; 10^−13 M, 24 hrs, BrdU
  trophoblast proliferation compared to the control: no increase in proliferation
[1]; 10^−14 M, 24 hrs, BrdU
  increase in trophoblast proliferation: 183.3±50.2%
[1]; any concentration other than 10^−14 M (higher concentrations, data not shown)
  trophoblast proliferation at other concentrations: no proliferative effect

From patent US8138304B2, “Neural regeneration peptides and formulations thereof” (Neuren Pharmaceuticals Limited, priority 2005, dated 2012)
